Patent publication EP0429522B1, “PHOSPHOSUGAR-BASED ANTI-INFLAMMATORY AND/OR IMMUNOSUPPRESSIVE DRUGS” (THE AUSTRALIAN NATIONAL UNIVERSITY, priority 1988, dated 1990)

Assays:
[1] = test system: Delayed-Type Hypersensitivity (DTH); experiment: Delayed-type hypersensitivity (DTH) footpad swelling after sheep red blood cell challenge; format: in vivo, C57Bl mice; details: 24 hours after challenge; 0.15mg i/p per injection, 7 injections at approx. 3½ hour intervals
Protocol: C57Bl mice were sensitised by i.v. injection 10⁵ of washed sheep red blood cells. 5 days later they were challenged in the right hind footpad with SRBC. Each mouse was given a 0.25ml injection i/p at the same time of either saline, mannose-6-phosphate or the 1,2,3,4-tetraacetate of mannose-6-phosphate and all injections were repeated a further 6 times at approx. 3½ hour intervals. The dose in each injection of mannose-6- phosphate was 0.15mg and of 1,2,3,4-tetra-O-acetyl derivative of mannose-6-phosphate was also 0.15mg. At 24 hours after challenge the DTH swelling was measured.

[2] = test system: Adoptively Transferred EAE; experiment: Inhibition of adoptively transferred EAE (clinical signs), phosphosugar delivered by subcutaneous mini-osmotic pumps; format: in vivo, Lewis rats; details: for Disease Severity (%Control): product of mean clinical score and mean length disease; for inhibition of EAE (result in words): summary of Tables I, III and IV
Protocol: In this Example, a number of phosphosugars and one phospho-polysaccharide were tested for their ability to inhibit development of EAE in rats. (All phosphosugars tested are commercially available and were obtained from Sigma Chemical Co., St. Louis, MO, U.S.A.). Experimental details are included in the footnotes to the Tables setting out the test results.
Thus, although 7/10 animals treated with mannose-6-phosphate developed some clinical signs of disease (Table III) the severity of these disease symptoms was extremely mild compared with untreated animals, i.e., <10% disease severity of controls when clinical scores and duration of disease are examined. In this sense, the mannose-6-phosphate data in Tables I and III are almost identical. […]
In these experiments, details of which were as in Table I, the number of cells transferred was 25x10⁶/rat, while the dose of compound administered was 10mg/rat delivered over a 7 day period by mini-osmotic pumps, commencing on day 3 after cell transfer.

EAE = experiment: Histological analysis of spinal cord inflammatory lesions in EAE rats; format: in vivo; details: for No.Lesions: lower thoracic-upper lumbar spinal cord sections, treated as in Table I; for No.Lesions / Lesions/section: 9 days after cell transfer; for Lesions/section: spinal cord sections
From the text: Such data are consistent with the view that the sugars are inhibiting entry of leukocytes into the CNS.

[3] = test system: Passive Adjuvant Arthritis; experiment: Suppression of passive adjuvant arthritis (foot size); format: in vivo, (DA x Lew)Fl rats; details: 6mg/rat/day by miniosmotic pumps for 14 days
Protocol: (DA x Lew)Fl rats were immunized with M.butyricum in light mineral oil given in each foot. Ten days later spleens were removed and incubated as single cell suspension tissue culture medium in + 5µg/ml ConA for 75 hrs. Cells were harvested, washed and transferred i.v. at 65 x 10⁶ cells/rat into (DA x Lew)F recipients.
Treated rats were implanted on the day they received cells with miniosmotic pumps which delivered 6mg/rat/day of mannose-6- phosphate for 14 days. Control rats were sham operated. The results are shown in Table VII as % of pre-cell injection foot size. {Average for group; n=4 (mannose-6-phosphate); n=6 (control)}.

[4] = Table III, experimental details as in Table I
[5] = Table II, dose 10 mg over 7 days
[6] = Table II, dose 20 mg over 7 days
[7] = Table II, dose 40 mg over 7 days

Compound: 1,2,3,4-tetra-O-acetyl derivative of mannose-6-phosphate
- reduction of DTH swelling as compared with the saline controls [1]: 91.5%

Compound: O=C(COP(=O)(O)O)[C@@H](O)[C@H](O)[C@H](O)COP(=O)(O)O [Fructose-1,6-diphosphate, fructose-1,6-diphosphate]
- Mean Clinical Score [2, 4]: 2.4
- Mean Day Onset [2, 4]: 5.4
- Mean Length Disease [2, 4]: 3.4 days
- No.with EAE/Total [2, 4]: 5/5
- Disease Severity (%Control) ([2]; Table III): 54.0%
- inhibition of EAE (result in words) [2]: partially inhibitory

Compound: O=C(CO)[C@@H](O)[C@H](O)[C@H](O)COP(=O)(O)O [Fructose-6-phosphate]
- Mean Clinical Score [2, 4]: 1.6
- Mean Day Onset [2, 4]: 6.0
- Mean Length Disease [2, 4]: 2.4 days
- No.with EAE/Total [2, 4]: 4/5
- Disease Severity (%Control) ([2]; Table III): 25.4%
- inhibition of EAE (result in words) [2]: comparatively effective inhibitor of EAE

Compound: 6-phospho-mannose-α(1-3)-{mannose-α-(1-3)}₂-mannose-α-(1-2)-mannose [Pentasaccharide]
- EAE/Total ([2]; Table VI, 25x10⁶ cells/rat, 10mg/rat over 7 days by mini-osmotic pumps from day 3): 1/5

Compound: OC[C@H]1OC(O)[C@@H](O)[C@@H](O)[C@@H]1O (stereo partly drawn) [D-mannose, reference compound]
- Mean Clinical Score [2, 4]: 2.9
- Mean Day Onset [2, 4]: 5.2
- Mean Length Disease [2, 4]: 4.4 days
- No.with EAE/Total [2, 4]: 5/5
- Disease Severity (%Control) ([2]; Table III): 84.5%
- inhibition of EAE (result in words) [2]: little or no effect on disease progression

Compound: O=P(O)(O)OC[C@H]1OC(O)[C@H](O)[C@@H](O)[C@@H]1O (some centres unmarked) [Glucose-6-phosphate, glucose-6-phosphate]
- Mean Clinical Score [2, 4]: 2.0
- Mean Day Onset [2, 4]: 5.4
- Mean Length Disease [2, 4]: 3.8 days
- No.with EAE/Total [2, 4]: 5/5
- Disease Severity (%Control) ([2]; Table III): 50.3%
- inhibition of EAE (result in words) [2]: partially inhibitory

Compound: O=P(O)(O)OC[C@H]1OC(O)[C@@H](O)[C@@H](O)[C@@H]1O (some centres unmarked) [Mannose-6-phosphate, mannose-6-phosphate]
- Mean Length Disease ([2]; Table I, 40 mg/rat over 7 days): 0 days
- Mean Day Onset ([2]; Table I, 40 mg/rat over 7 days, s.c. pumps from day 3): 0
- Mean Clinical Score ([2]; Table I, 40 mg/rat over 7 days, score 0-5): 0
- No.with EAE/Total ([2]; Table I, 30 x 10⁶ ConA activated EAE effector cells, 40 mg/rat over 7 days, s.c. pumps from day 3): 0/8
- Mean Clinical Score [2, 5]: 1.8
- Mean Day Onset [2, 5]: 5.0
- Mean Length Disease [2, 5]: 3.3
- No.with EAE/Total [2, 5]: 4/4
- Disease Severity (%Control) ([2]; Table II, dose 10 mg over 7 days, listed as Mannose-6-Phosphate): 37.7%
- Disease Severity (%Control) ([2]; Table II, dose 10 mg over 7 days, listed as mannose-6-phosphate): 37.7%
- Mean Clinical Score [2, 6]: 1.5
- Mean Day Onset [2, 6]: 5.0
- Mean Length Disease [2, 6]: 3.0
- No.with EAE/Total [2, 6]: 4/4
- Disease Severity (%Control) [2, 6]: 28.6%
- Mean Clinical Score [2, 7]: 0.3
- Mean Day Onset [2, 7]: 5.0
- Mean Length Disease [2, 7]: 0.7
- No.with EAE/Total [2, 7]: 1/3
- Disease Severity (%Control) [2, 7]: 1.7%
- Mean Clinical Score [2, 4]: 0.9
- Mean Day Onset [2, 4]: 6.0
- Mean Length Disease [2, 4]: 1.5 days
- No.with EAE/Total [2, 4]: 7/10
- Disease Severity (%Control) ([2]; Table III): 8.9%
- Disease Severity (%Control) ([2]; Table III, listed as mannose-6-phosphate): < 10%
- inhibition of EAE (result in words) [2]: totally inhibited development of disease
- CNS lesions (result in words) (EAE; text summary of Table V): No lesions were detected
- No.Lesions (EAE; treated rat 1): 0
- Lesions/section (EAE; treated rat 1): 0
- No.Lesions (EAE; treated rat 2): 0
- Lesions/section (EAE; treated rat 2): 0
- % of pre-cell injection foot size ([3]; Day 4, group average n=4): 97.3%
- % of pre-cell injection foot size ([3]; Day 6, n=4): 105.8%
- % of pre-cell injection foot size ([3]; Day 7, n=4): 102.8%
- % of pre-cell injection foot size ([3]; Day 9, n=4): 108.4%
- % of pre-cell injection foot size ([3]; Day 11, n=4): 107.6%
- % of pre-cell injection foot size ([3]; Day 14, n=4): 117.4%
- reduction of DTH swelling as compared with the saline controls [1]: 52.5%

Compound: O=P(O)(O)OC[C@H]1OC(O)[C@H](O)[C@@H](O)[C@H]1O (some centres unmarked) [Galactose-6-phosphate, galactose-6-phosphate]
- Mean Clinical Score [2, 4]: 2.0
- Mean Day Onset [2, 4]: 5.2
- Mean Length Disease [2, 4]: 3.0 days
- No.with EAE/Total [2, 4]: 5/5
- Disease Severity (%Control) ([2]; Table III): 40.5%
- inhibition of EAE (result in words) [2]: partially inhibitory

Compound: Glucose-1-phosphate
- Mean Clinical Score [2, 4]: 3.0
- Mean Day Onset [2, 4]: 5.2
- Mean Length Disease [2, 4]: 3.8 days
- No.with EAE/Total [2, 4]: 5/5
- Disease Severity (%Control) ([2]; Table III): 75.5%
- inhibition of EAE (result in words) [2]: little or no effect on disease progression

Compound: O=C(COP(=O)(O)O)[C@@H](O)[C@H](O)[C@H](O)CO [Fructose-1-phosphate, fructose-1-phosphate]
- Mean Clinical Score [2, 4]: 1.2
- Mean Day Onset [2, 4]: 5.5
- Mean Length Disease [2, 4]: 1.6 days
- No.with EAE/Total [2, 4]: 3/5
- Disease Severity (%Control) ([2]; Table III): 12.6%
- inhibition of EAE (result in words) [2]: as effective as mannose-6-phosphate at inhibiting disease
